In ChEMBL document CHEMBL3877252, “Fluorescein hydrazones: A series of novel non-intercalative topoisomerase IIα catalytic inhibitors induce G1 arrest and apoptosis in breast and colon cancer cells” (Eur J Med Chem, 2017):
The source made the active and inactive calls. The calls are words filed in the database; no cut-off is given here.

Legend:
[1] = molecular target: DNA topoisomerase 2-alpha (Homo sapiens) (UniProt P11388); assay: Poison activity at topoisomerase-2 alpha in human T47D cells assessed as DNA damage by measuring DNA tail length at 5 uM measured after 24 hrs by alkaline comet assay; type: cell-based
[2] = Cell cycle arrest in human T47D cells assessed as accumulation at G1 phase at 10 uM after 20 hrs by DAPI staining-based cell analyzer (reference value: 47 to 50%); type: functional
[3] = Cell cycle arrest in human T47D cells assessed as accumulation at G1 phase at 10 uM after 10 hrs by DAPI staining-based cell analyzer (reference value: 47 to 50%); type: functional
[4] = Cell cycle arrest in human T47D cells assessed as accumulation at G1 phase at 10 uM after 15 hrs by DAPI staining-based cell analyzer (reference value: 47 to 50%); type: functional
[5] = Cell cycle arrest in human T47D cells assessed as accumulation at G1 phase at 10 uM by DAPI staining based cell analyzer; type: functional; settings: TDE = time-dependent effect
[6] = Cell cycle arrest in human T47D cells assessed as accumulation at S phase at 10 uM after 15 hrs by DAPI staining-based cell analyzer (reference value: 22%); type: functional
[7] = Cell cycle arrest in human T47D cells assessed as accumulation at G1 phase at 3 uM after 24 hrs by DAPI staining-based cell analyzer (reference value: 51%); type: functional
T47D [8] = assay: Induction of apoptosis in human T47D cells assessed as decrease in bcl-2 level measured after 24 hrs by Western blot analysis; type: functional, cell-based
[9] = molecular target: DNA topoisomerase 2-alpha (Homo sapiens) (UniProt P11388); assay: Inhibition of topoisomerase-2 alpha catalytic activity in human T47D cells assessed as appearance of free protein band at 50 uM measured after 2 hrs by Western blot analysis; type: cell-based
[10] = Cell cycle arrest in human T47D cells assessed as accumulation at G2/M phase at 1 uM after 24 hrs by DAPI staining-based cell analyzer (reference value: 15%); type: functional
[11] = Antiproliferative activity against human HCT15 cells measured after 72 hrs by CCK8 assay; type: functional, cell-based; settings: HCT-15, 72 h
[12] = Antiproliferative activity against human DU145 cells measured after 72 hrs by CCK8 assay; type: functional, cell-based; settings: DU-145, 72 h
[13] = Cell cycle arrest in human T47D cells assessed as accumulation at S phase at 1 uM after 24 hrs by DAPI staining-based cell analyzer (reference value: 26%); type: functional
T47D [14] = assay: Induction of apoptosis in human T47D cells assessed as increase in bax level measured after 24 hrs by Western blot analysis; type: functional, cell-based
[15] = Cell cycle arrest in human T47D cells assessed as accumulation at G2/M phase at 10 uM after 15 hrs by DAPI staining-based cell analyzer (reference value: 18 to 20%); type: functional
[16] = Cell cycle arrest in human T47D cells assessed as accumulation at S phase at 10 uM after 5 hrs by DAPI staining-based cell analyzer (reference value: 22%); type: functional
T47D [17] = assay: Induction of apoptosis in human T47D cells assessed as increase in cleaved PARP level measured after 24 hrs by Western blot analysis; type: functional, cell-based
[18] = Cell cycle arrest in human T47D cells assessed as increase in p27kip1 level measured after 24 hrs; type: functional, cell-based
[19] = Antiproliferative activity against human T47D cells measured after 72 hrs by CCK8 assay; type: functional, cell-based
[20] = Cell cycle arrest in human T47D cells assessed as accumulation at S phase at 10 uM after 10 hrs by DAPI staining-based cell analyzer (reference value: 22%); type: functional
[21] = Cell cycle arrest in human T47D cells assessed as accumulation at G1 phase at 10 uM after 5 hrs by DAPI staining-based cell analyzer (reference value: 47 to 50%); type: functional
[22] = Cell cycle arrest in human T47D cells assessed as accumulation at G2/M phase at 10 uM after 20 hrs by DAPI staining-based cell analyzer (reference value: 18 to 20%); type: functional
[23] = molecular target: DNA topoisomerase 2-alpha (Homo sapiens) (UniProt P11388); assay: Inhibition of human topoisomerase-2 alpha assessed as inhibition of relaxation of supercoiled pBR322 plasmid DNA at 20 uM measured after 1 hr by ethidium bromide staining based agarose gel electrophoresis relative to control
[24] = Antiproliferative activity against human MCF7 cells measured after 72 hrs by CCK8 assay; type: functional, cell-based; settings: MCF7, 72 h
[25] = Cell cycle arrest in human T47D cells assessed as decrease in cyclin D1 level measured after 24 hrs; type: functional, cell-based
[26] = Cell cycle arrest in human T47D cells assessed as accumulation at G2/M phase at 10 uM after 5 hrs by DAPI staining-based cell analyzer (reference value: 18 to 20%); type: functional
[27] = Cell cycle arrest in human T47D cells assessed as accumulation at G1 phase at 1 uM after 24 hrs by DAPI staining-based cell analyzer (reference value: 51%); type: functional
[28] = Cell cycle arrest in human T47D cells assessed as accumulation at G2/M phase at 10 uM after 24 hrs by DAPI staining-based cell analyzer (reference value: 15%); type: functional
[29] = Cell cycle arrest in human T47D cells assessed as accumulation at G2/M phase at 3 uM after 24 hrs by DAPI staining-based cell analyzer (reference value: 15%); type: functional
[30] = Cell cycle arrest in human T47D cells assessed as accumulation at S phase at 10 uM after 24 hrs by DAPI staining-based cell analyzer (reference value: 26%); type: functional
[31] = Cell cycle arrest in human T47D cells assessed as decrease in cyclin D1 level at 10 uM; type: functional, cell-based; settings: TDE = time-dependent effect
[32] = molecular target: DNA topoisomerase 2-alpha (Homo sapiens) (UniProt P11388); assay: Poison activity at topoisomerase-2 alpha in human T47D cells assessed as DNA damage by measuring DNA tail length at 10 uM measured after 24 hrs by alkaline comet assay; type: cell-based
[33] = Cell cycle arrest in human T47D cells assessed as accumulation at S phase at 10 uM after 20 hrs by DAPI staining-based cell analyzer (reference value: 22%); type: functional
[34] = molecular target: T1, DNA topoisomerase 1 (Homo sapiens) (UniProt P11387); assay: Inhibition of human topoisomerase-1 assessed as inhibition of relaxation of supercoiled pBR322 plasmid DNA at 100 uM measured after 1 hr by ethidium bromide staining based agarose gel electrophoresis relative to control
T1 sequence (whole entry): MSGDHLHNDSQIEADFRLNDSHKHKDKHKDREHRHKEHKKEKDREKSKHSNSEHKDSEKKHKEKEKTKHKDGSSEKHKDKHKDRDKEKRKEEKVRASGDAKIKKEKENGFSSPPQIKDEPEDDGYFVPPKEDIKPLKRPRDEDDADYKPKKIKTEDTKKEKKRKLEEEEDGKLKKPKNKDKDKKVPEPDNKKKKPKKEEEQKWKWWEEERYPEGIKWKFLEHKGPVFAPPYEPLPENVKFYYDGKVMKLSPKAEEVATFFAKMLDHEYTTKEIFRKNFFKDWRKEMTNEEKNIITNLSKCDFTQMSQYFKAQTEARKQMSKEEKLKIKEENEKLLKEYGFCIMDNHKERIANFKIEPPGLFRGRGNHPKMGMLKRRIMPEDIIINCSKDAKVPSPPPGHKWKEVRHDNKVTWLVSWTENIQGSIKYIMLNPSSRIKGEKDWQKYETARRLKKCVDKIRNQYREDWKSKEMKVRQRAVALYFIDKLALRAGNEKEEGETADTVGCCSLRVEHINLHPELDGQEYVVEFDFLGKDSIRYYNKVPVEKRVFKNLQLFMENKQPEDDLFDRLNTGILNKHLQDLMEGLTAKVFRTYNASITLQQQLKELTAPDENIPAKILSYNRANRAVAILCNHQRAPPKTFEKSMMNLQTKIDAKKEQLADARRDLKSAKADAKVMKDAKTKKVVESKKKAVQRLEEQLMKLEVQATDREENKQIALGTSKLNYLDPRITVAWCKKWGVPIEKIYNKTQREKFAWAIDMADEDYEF

[35] = Cell cycle arrest in human T47D cells assessed as increase in p27kip1 level at 10 uM; type: functional, cell-based; settings: TDE = time-dependent effect
[36] = molecular target: DNA topoisomerase 2-alpha (Homo sapiens) (UniProt P11388); assay: Inhibition of human topoisomerase-2 alpha assessed as inhibition of relaxation of supercoiled pBR322 plasmid DNA at 100 uM measured after 1 hr by ethidium bromide staining based agarose gel electrophoresis relative to control
[37] = Cell cycle arrest in human T47D cells assessed as accumulation at G1 phase at 10 uM after 24 hrs by DAPI staining-based cell analyzer (reference value: 51%); type: functional
[38] = Cell cycle arrest in human T47D cells assessed as accumulation at S phase at 3 uM after 24 hrs by DAPI staining-based cell analyzer (reference value: 26%); type: functional
[39] = Cell cycle arrest in human T47D cells assessed as accumulation at G2/M phase at 10 uM after 10 hrs by DAPI staining-based cell analyzer (reference value: 18 to 20%); type: functional
Bos taurus = species on record: Bos taurus; assay: Displacement of ethidium bromide from calf thymus DNA measured after 30 mins by fluorescence quenching assay
[40] = molecular target: T1, DNA topoisomerase 1 (Homo sapiens); assay: Inhibition of human topoisomerase-1 assessed as inhibition of relaxation of supercoiled pBR322 plasmid DNA at 20 uM measured after 1 hr by ethidium bromide staining based agarose gel electrophoresis relative to control

DNA topoisomerase 2-alpha (Homo sapiens), sequence (P11388 whole entry): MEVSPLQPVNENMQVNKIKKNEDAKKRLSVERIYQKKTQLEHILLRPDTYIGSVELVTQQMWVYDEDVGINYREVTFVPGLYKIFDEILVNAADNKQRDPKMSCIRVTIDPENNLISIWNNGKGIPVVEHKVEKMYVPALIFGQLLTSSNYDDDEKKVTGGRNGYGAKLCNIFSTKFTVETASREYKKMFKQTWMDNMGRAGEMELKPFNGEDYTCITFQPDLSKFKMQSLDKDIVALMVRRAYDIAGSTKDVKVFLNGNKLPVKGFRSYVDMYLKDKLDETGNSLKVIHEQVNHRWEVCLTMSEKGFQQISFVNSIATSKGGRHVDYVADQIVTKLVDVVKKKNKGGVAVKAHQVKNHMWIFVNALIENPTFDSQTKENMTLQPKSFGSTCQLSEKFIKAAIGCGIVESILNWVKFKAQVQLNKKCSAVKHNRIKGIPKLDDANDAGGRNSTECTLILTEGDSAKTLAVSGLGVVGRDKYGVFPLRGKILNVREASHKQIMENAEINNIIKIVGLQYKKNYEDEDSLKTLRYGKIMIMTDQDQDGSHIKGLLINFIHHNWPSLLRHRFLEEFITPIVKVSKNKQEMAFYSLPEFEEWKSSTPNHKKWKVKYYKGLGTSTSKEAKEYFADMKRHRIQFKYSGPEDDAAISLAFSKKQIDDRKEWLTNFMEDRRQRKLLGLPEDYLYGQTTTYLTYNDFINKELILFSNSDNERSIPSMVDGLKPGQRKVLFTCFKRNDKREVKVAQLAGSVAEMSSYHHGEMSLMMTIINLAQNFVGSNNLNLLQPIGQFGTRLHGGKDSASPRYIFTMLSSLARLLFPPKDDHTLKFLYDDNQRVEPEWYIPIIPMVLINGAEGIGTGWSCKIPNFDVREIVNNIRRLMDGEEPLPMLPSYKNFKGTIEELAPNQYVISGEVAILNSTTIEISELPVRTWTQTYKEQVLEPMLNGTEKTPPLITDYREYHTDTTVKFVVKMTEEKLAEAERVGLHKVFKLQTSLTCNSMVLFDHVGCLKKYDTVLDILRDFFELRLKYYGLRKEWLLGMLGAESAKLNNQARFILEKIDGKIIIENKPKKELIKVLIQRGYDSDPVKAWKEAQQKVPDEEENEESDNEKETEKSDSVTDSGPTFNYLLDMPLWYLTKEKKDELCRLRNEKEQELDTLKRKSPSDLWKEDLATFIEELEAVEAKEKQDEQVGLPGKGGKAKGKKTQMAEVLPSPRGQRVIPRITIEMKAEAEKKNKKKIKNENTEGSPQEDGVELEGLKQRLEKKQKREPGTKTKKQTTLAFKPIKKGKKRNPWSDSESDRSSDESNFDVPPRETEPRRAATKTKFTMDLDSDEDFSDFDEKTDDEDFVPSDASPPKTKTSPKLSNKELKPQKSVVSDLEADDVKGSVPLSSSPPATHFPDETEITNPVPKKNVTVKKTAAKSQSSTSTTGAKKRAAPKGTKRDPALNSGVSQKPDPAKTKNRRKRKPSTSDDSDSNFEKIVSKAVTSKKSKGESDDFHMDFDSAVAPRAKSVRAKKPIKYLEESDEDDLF

| Compound | Activity [1] | Activity [2] | Activity [3] | Activity [4] | Activity [5] | Activity [6] | Activity [7] | Activity (T47D [8]) | inhibition [9] | Activity [10] | IC50 [11] | IC50 [12] | Activity [13] | Activity (T47D [14]) | IC50 [19] | inhibition [23] | IC50 [24] | inhibition [34] | inhibition [36] | inhibition [40] | other results |
| --- | --- | --- | --- | --- | --- | --- | --- | --- | --- | --- | --- | --- | --- | --- | --- | --- | --- | --- | --- | --- | --- |
| CCOc1ccc2c(c1)Oc1cc(O)ccc1C21c2ccccc2C(=O)N1/N=C/c1cccc(O)c1 (stereo unspecified) | 9.55 pixel | 65% | 60% | 61% | Tde | 21% | 57% | Dose-dependent effect | Active | 13% | 0.83 µM | 0.04 µM | 24% | Dose-dependent effect | 0.35 µM | 2.6% | 2.23 µM | 0% | 89.3% | – | Activity [15]: 12%; Activity [16]: 21%; Activity (T47D [17]): Dose-dependent effect; Activity [18]: Dose-dependent effect; Activity [20]: 21%; Activity [21]: 59%; Activity [22]: 12%; Activity [25]: Dose-dependent effect; Activity [26]: 12%; Activity [27]: 56%; Activity [28]: 9%; Activity [29]: 12%; Activity [30]: 20%; Activity [31]: Tde; Activity [32]: 11.5 pixel; Activity [33]: 15%; Activity [35]: Tde; Activity [37]: 64%; Activity [38]: 22%; Activity [39]: 12% |
| COc1cc(NS(C)(=O)=O)ccc1Nc1c2ccccc2nc2ccccc12 | – | – | – | – | – | – | – | – | – | – | – | – | – | – | – | – | – | – | – | – | inhibition (Bos taurus): Dose-dependent effect |
| CCOc1ccc2c(c1)Oc1cc(OC(=O)c3ccccc3[N+](=O)[O-])ccc1C21c2ccccc2C(=O)N1/N=C/c1ccc(Cl)cc1Cl (stereo unspecified) | – | – | – | – | – | – | – | – | – | – | 6.25 µM | 6.74 µM | – | – | > 50 µM | 2.9% | > 50 µM | 98% | 83.8% | 77% | – |
| CCOc1ccc2c(c1)Oc1cc(O)ccc1C21c2ccccc2C(=O)N1/N=C/c1ccc(OC)c(O)c1 (stereo unspecified) | – | – | – | – | – | – | – | – | – | – | 0.29 µM | 1.93 µM | – | – | 1.61 µM | 2.7% | 3.64 µM | 77.8% | 37.9% | 4.2% | – |
| CCOc1ccc2c(c1)Oc1cc(O)ccc1C21c2ccccc2C(=O)N1/N=C/c1ccccc1O (stereo unspecified) | 7.76 pixel | 62% | 55% | 57% | Tde | 21% | 59% | Dose-dependent effect | Active | 14% | 1.84 µM | 0.55 µM | 28% | Dose-dependent effect | 0.43 µM | 1.9% | 4.74 µM | 39.5% | 78.7% | 28.1% | Activity [15]: 10%; Activity [16]: 21%; Activity (T47D [17]): Dose-dependent effect; Activity [18]: Dose-dependent effect; Activity [20]: 22%; Activity [21]: 51%; Activity [22]: 10%; Activity [25]: Dose-dependent effect; Activity [26]: 14%; Activity [27]: 54%; Activity [28]: 11%; Activity [29]: 11%; Activity [30]: 22%; Activity [31]: Tde; Activity [32]: 8.56 pixel; Activity [33]: 20%; Activity [35]: Tde; Activity [37]: 60%; Activity [38]: 25%; Activity [39]: 13% |
